ChEMBL document CHEMBL4813989, “Design, synthesis, and biological evaluation of nitroisoxazole-containing spiro[pyrrolidin-oxindole] derivatives as novel glutathione peroxidase 4/mouse double minute 2 dual inhibitors that inhibit breast adenocarcinoma cell proliferation” (Eur J Med Chem, 2021)

Columns and labels:
MCF7 [1] = assay: Antiproliferative activity against human MCF7 cells assessed as reduction in cell growth incubated for 48 hrs by CCK8 assay; settings: MCF7, 48 h
MCF7 [2] = assay: Antiproliferative activity against human MCF7 cells assessed as reduction in cell growth incubated for 48 hrs in presence of Fer-1 by CCK8 assay; settings: MCF7, 48 h
MCF-10A = assay: Cytotoxicity against human MCF-10A cells assessed as reduction in cell viability incubated for 48 hrs by CCK8 assay; assay type: cell-based

Row | SMILES | IC50 (MCF7 [1]) [µM] | IC50 (MCF7 [2]) [µM] | Activity (MCF-10A)
1 | Cc1noc([C@@H]2[C@@H](c3ccc(F)cc3)[C@H](C(F)(F)F)N[C@@]23C(=O)Nc2ccccc23)c1[N+](=O)[O-] | 0.55 | 17.4 | Non-Toxic
2 | Cc1noc([C@@H]2[C@@H](c3cccc(F)c3)[C@H](C(F)(F)F)N[C@@]23C(=O)Nc2ccccc23)c1[N+](=O)[O-] | 0.87 | 15.6 | Non-Toxic
3 | Cc1noc([C@@H]2[C@@H](c3cccc(Br)c3)[C@H](C(F)(F)F)N[C@@]23C(=O)Nc2ccccc23)c1[N+](=O)[O-] | 2.31 | > 20 | Non-Toxic
4 | Cc1noc([C@@H]2[C@@H](c3ccc(Br)cc3)[C@H](C(F)(F)F)N[C@@]23C(=O)Nc2ccccc23)c1[N+](=O)[O-] | 3.01 | 17 | Non-Toxic
5 | Cc1noc([C@@H]2[C@@H](c3ccc([N+](=O)[O-])cc3)[C@H](C(F)(F)F)N[C@@]23C(=O)Nc2ccccc23)c1[N+](=O)[O-] | 5.36 | > 20 | Non-Toxic
6 | Cc1noc([C@@H]2[C@@H](c3cccc4ccccc34)[C@H](C(F)(F)F)N[C@@]23C(=O)Nc2ccccc23)c1[N+](=O)[O-] | 7.17 | > 20 | Non-Toxic
7 | Cc1noc([C@@H]2C(c3ccco3)[C@H](C(F)(F)F)N[C@@]23C(=O)Nc2ccccc23)c1[N+](=O)[O-] (single isomer, unassigned) | 1.46 | 14.3 | Non-Toxic
8 | Cc1noc([C@@H]2[C@@H](c3ccccc3)[C@H](C(F)(F)F)N[C@@]23C(=O)Nc2ccc([N+](=O)[O-])cc23)c1[N+](=O)[O-] | 4.75 | > 20 | Non-Toxic
9 | Cc1ccc([C@H]2[C@H](C(F)(F)F)N[C@@]3(C(=O)Nc4ccccc43)[C@@H]2c2onc(C)c2[N+](=O)[O-])cc1 | 2.81 | 18.8 | Non-Toxic
10 | Cc1ccc2c(c1)[C@]1(N[C@@H](C(F)(F)F)[C@H](c3ccccc3)[C@H]1c1onc(C)c1[N+](=O)[O-])C(=O)N2 | 4.91 | 18.1 | Non-Toxic
11 | Cc1noc([C@@H]2[C@@H](c3ccccc3)[C@H](C(F)(F)F)N[C@@]23C(=O)Nc2ccc(Cl)cc23)c1[N+](=O)[O-] | 0.37 | 19.8 | Non-Toxic
12 | Cc1noc([C@@H]2[C@@H](c3ccc(C(C)C)cc3)[C@H](C(F)(F)F)N[C@@]23C(=O)Nc2ccccc23)c1[N+](=O)[O-] | 2.83 | > 20 | Non-Toxic
13 | Cc1noc([C@@H]2[C@@H](c3ccc(Cl)c(Cl)c3)[C@H](C(F)(F)F)N[C@@]23C(=O)Nc2ccccc23)c1[N+](=O)[O-] | 3.22 | > 20 | Non-Toxic
14 | Cc1noc([C@@H]2[C@@H](c3ccccc3)[C@H](c3ccccc3)N[C@@]23C(=O)Nc2ccccc23)c1[N+](=O)[O-] | 5.24 | > 20 | Non-Toxic
15 | Cc1noc([C@@H]2[C@@H](c3ccccc3)[C@H](C(F)(F)F)N[C@@]23C(=O)Nc2ccc(F)cc23)c1[N+](=O)[O-] | 0.21 | 15.6 | Non-Toxic
16 | Cc1noc([C@@H]2C(c3cccs3)[C@H](C(F)(F)F)N[C@@]23C(=O)Nc2ccccc23)c1[N+](=O)[O-] (single isomer, unassigned) | 1.53 | 19 | Non-Toxic
17 | Cc1onc(C(=O)N2CCN(C(c3ccc(Cl)cc3)c3ccc(Cl)cc3)CC2)c1[N+](=O)[O-] | 0.076 | > 20 | 
18 | Cc1noc([C@@H]2[C@@H](c3ccccc3)[C@H](C(F)(F)F)N[C@@]23C(=O)Nc2ccc(Br)cc23)c1[N+](=O)[O-] | 0.55 | 16.3 | Non-Toxic
19 | COc1ccc([C@H]2[C@H](C(F)(F)F)N[C@@]3(C(=O)Nc4ccccc43)[C@@H]2c2onc(C)c2[N+](=O)[O-])cc1OC | 4.13 | > 20 | Non-Toxic
